Biological target: BmorOR1·BmorOrco (Bombyx mori, UniProt Q5WA61, P178A)
Format: cell-based
Conditions: agonist; co-expressed with BmorOrco; 0.1% DMSO; -80 mV

two-electrode voltage clamp, Xenopus oocytes, dose-response of odorant-induced c: the effect on P178A-BmorOR1 was moderate
Structure (SMILES): CCC/C=C\C=C\CCCCCCCCCO [bombykol, (10E,12Z)-hexadecadien-1-ol]

— publication PMC3836372 (Biochemical and biophysical research communications, 2013)
